Assay results published in patent publication US20110064669A1, “USE OF GALANIN IN A METHOD OF TREATING NEURODEGENERATIVE DISEASES OR CONDITIONS” (HOWARD FLOREY INSTITUTE OF EXPERIMENTAL PHYSIOLOGY AND …, priority 2007, published 2011).
Entries after “also recorded” stand apart in the source; their conditions may differ. No end group written: not given here.

Key:
[1] = test system: post-mitotic OC (primary rat OPC matured by PDGF withdrawal); test: Oligodendrocyte survival assay (calcein / ethidium homodimer live-dead count); assay type: cell-based
Protocol: Whether or not galanin itself is a survival factor for oligodendrocytes in vitro was determined. Primary rat OPC in culture were matured for 48 hours by PDGF withdrawal in the presence of insulin, passaged into poly-1-lysine coated 24 well-plates at a density of 200 cells/well in Sato medium alone or Sato medium supplemented with various concentrations of recombinant rat galanin (Peninsula Biosciences).
Twenty wells/condition were counted in each survival assay and results were verified in four independent experiments using separate batches of primary cells. All counts were performed by an investigator blinded to the experimental condition.

[2] = test system: cultured primary oligodendrocytes; test: Affymetrix gene chip analysis of LIF-induced mRNA in cultured primary oligodendrocytes; assay type: cell-based, rat; conditions: 8 hours of LIF exposure, versus NT3, insulin or Sato only
Protocol: In order to assess mRNA induction promoted by LIF signaling in oligodendrocytes, an Affymetrix array analysis was conducted of cultured primary oligodendrocytes. A2B5 positive, O1 negative oligodendrocyte progenitor cells were isolated by sequential immunopanning from P6 rat optic nerves. After expansion in culture (2 passages, 11 days) in Sato medium in the presence of insulin, platelet-derived growth factor (PDGF) and neurotrophin-3 (NT3) (no CNTF or LIF), the cells were matured by 48 hours of PDGF withdrawal. The NT3 was also withdrawn for this time-period but insulin was maintained. In order to determine gene expression profiles induced by various cytokines, the matured cells were then exposed to one of four conditions for 8 hours: Sato alone, Sato plus insulin, Sato plus LIF, Sato plus NT3. Subsequently, the cells were harvested, mRNA isolated and processed for Affymetrix gene chip hybridization (Rat 230 2.0). The experiments were conducted as independent triplicates. […] The 965 genes identified were subjected to cluster analysis. Distinct clusters of genes were regulated by insulin and LIF (FIG. 9) but not NT-3.

[3] = test system: oligodendrocyte progenitors or mature oligodendrocytes; test: Real-time PCR confirmation of LIF-regulated genes in oligodendrocyte progenitors and mature oligodendrocytes; assay type: cell-based, rat; conditions: LIF for 5 or 24 hours
Protocol: For each of these six regulated genes, independent confirmation was conducted by real-time PCR. Either dividing oligodendrocyte progenitors or mature oligodendrocytes (as above) were exposed to LIF for either 5 or 24 hours, and measured gene induction against baseline (independent baseline cultures for each comparison). […] FIG. 10 illustrates typical results for secretogranin 2 and galanin.

[4] = test system: mature oligodendrocytes; test: Western blot of galanin in concentrated media of mature oligodendrocytes; assay type: cell-based, rat; conditions: LIF 100 ng/ml, 48 hours, SATO plus insulin
Protocol: (§1) Translation of regulated cytokine and neuropeptide mRNA species into peptides/proteins was confirmed. Mature oligodendrocytes (as above) were plated in 10 cm dishes in SATO plus insulin and added LIF (100 ng/ml) to half the dishes for 48 hours. […] LIF-dependent galanin production in concentrated media from the OC cell line CG4 (FIG. 11) was confirmed. […] All Western blots were performed in triplicate from independent experiments. The LIF-dependent induction of a secretory phenotype in OC was confirmed by galanin immunocytochemistry of OC cultured in insulin +/− LIF for 48 hours (FIG. 13).

[5] = test system: cultured primary rat astrocytes or an n-mye immortalized astrocytic cell line; test: Galanin production in response to LIF in astrocytes; assay type: cell-based
[6] = test system: OC; test: Galanin immunocytochemistry of OC cultured in insulin +/- LIF; assay type: cell-based, rat; conditions: LIF-treated versus untreated OC, 48 hours
Protocol: as §1

[7] = test system: EAE; conditions: cited from earlier work
[8] = test system: cuprizone demyelination; conditions: exogenous LIF, wild-type litter mates; cited from earlier work

Row | Substance | OC survival in vitro ([1]; 1 nM galanin in Sato medium, versus Sato alone (nil)) | OC survival, galanin plus LIF versus galanin alone (synergy) ([1]; Sato medium) | OC survival in vitro ([1]; higher galanin concentrations (other than 1 nM), versus baseline (nil)) | regulation of genes (secretogranin II, cytokines/neuropeptides incl. galanin) on gene chip [2] | gene induction against baseline at the RNA level (six genes incl. secretogranin 2 and galanin) [3] | galanin production in concentrated media [4] | induction of galanin production [5] | galanin staining of OC [6] | reduction in density of oligodendrocytes within the spinal cord in established EAE ([7]; MBP-lacZ mice, LIF administration) | EAE severity ([7]; recombinant LIF administration) | severity of demyelination [8]
1 | galanin (GWTLNSAGYLLGPHAIDNHRSFSDKHGLT; ends and bridges not checked; UniProt P10683 33-61, looked up) [29 amino acid neuropeptide; recombinant rat galanin (Peninsula Biosciences) used in the survival assay] | highly significant survival effect; also recorded: increased | not synergistic with LIF | abolished; also recorded: No other galanin concentration is significantly different from baseline | – | – | – | – | – | – | – | –
2 | leukemia inhibitory factor [LIF] | – | – | – | significantly regulated | confirmed to be regulated | Induction of galanin production was observed | not observed | intense polar galanin staining | fully rescued this phenotype | reduces EAE severity | reduce the severity of demyelination
